Experimental data reported in US20230233533A1, “COMPOSITIONS, METHODS OF TREATING AND PREVENTING FUNGAL INFECTIONS, AND METHODS OF INHIBITING PRP8 INTEIN EXPRESSION” (Health Research, Inc., priority 2020, published 2023).
In brackets after ≈: the same amount, converted by molar mass. Several values for one entry are separate records, joined by “and”; a condition that tells them apart may be missing. Equal values may be shown once. Numbered stars: 1 amine (or outer) side, 2 acyl side, 3 side chain; on linkers, the order of the positions; unused ones are H or OH. Bridge positions count the residues as written; N and C are the ends. Square brackets hold non-standard residues; d marks the D form. Peptide text beside a SMILES is read from it. * marks the point of attachment. hTyr(3S-OH,4S-OH,3'-OSO3H) = N[C@H](C(=O)O)[C@H](O)[C@@H](O)c1ccc(O)c(OS(=O)(=O)O)c1; pTerphenylCO(4''-OnC5H11) = CCCCCOc1ccc(-c2ccc(-c3ccc(C(=O)*)cc3)cc2)cc1; Orn(4R-OH,5R-OH) = O=C([C@H](C[C@@H](O)[C@@H](O)N[*:3])N[*:1])[*:2]; hTyr(3S-OH,4S-OH) = N[C@H](C(=O)O)[C@H](O)[C@@H](O)c1ccc(O)cc1; Pro(3S-OH,4S-Me) = C[C@H]1CN[C@H](C(=O)O)[C@H]1O; X1 = CCCCCOc1ccc(-c2cc(-c3ccc(C(=O)*)cc3)no2)cc1; Gln(3R-OH) = NC(=O)C[C@@H](O)[C@H](N)C(=O)O; Hyp = O=C(O)[C@@H]1C[C@@H](O)CN1

Tests used:
C. neoformans H99 = assay: Checkerboard assay; type: cell-based, Cryptococcus neoformans; settings: for MIC: Cryptococcus neoformans, H99, 48 h
Procedure: Compounds were initially dissolved in DMSO and diluted in RPMI-1640-MOPS media four times the targeted final concentration and 50 μl was added per well. The second compound was similarly diluted and 50 μl was added per well, to a final volume of 100 μl/well. C. neoformans […] inoculum (100 μl) prepared from freshly grown cultures and diluted to an absorbance of 0.1 at 530 nm in water and further diluted (1:500) in RPMI-1640-MOPS was added to each well. To determine the fungicidal concentration of a compound, the wells with no visible growth were serially diluted, plated on SDA, and incubated at 30° C. for 48-72 h for the recovery of colony-forming units. Additionally, the cell density of treated and untreated wells was also estimated by reading absorbance at 630 nm using an EL808 reader (Bio-Tek). Percentage of inhibition compared to that of the no-drug-control well was calculated. […] Fractional inhibitory concentration (FIC) index value is calculated as the […]. The FIC index value is then used to categorize the interaction of the two compounds tested. […] Doern, C., “When Does 2 plus 2 Equal 5?A Review of Antimicrobial Synergy Testing,” Journal of Clinical Microbiology 52(12):4124-4128 (2014), which is hereby incorporated by reference in its entirety.

C. neoformans = assay: Sensititre YeastOne Y09 AST drug combination assay; type: cell-based, Cryptococcus neoformans; settings: 6G-318S at 0.16 ug/ml, C. neoformans H99
Procedure: Sensititre YeastOne Y09 AST assay—Fungal susceptibility to a combination of compounds was carried out using the Sensititre YeastOne Y09 AST assay kit (Thermofisher), according to the manufacturer's manual. Briefly, fungal C. neoformans cells in exponential growth phase were diluted to a final OD530 of 0.1. Then 20 μl diluted cells were further diluted into 10 ml YPD as a stock. […] The stock C. neoformans (100 μl, ˜200 cells) were dispensed into the compound-ready 96-well plate. The fungal cells (treated or with DMF) were incubated at 30° C. for 48 h. The cell cultures were visualized by naked eye. The MIC break points were determined according to manufacturer's instructions.

Candida albicans = assay: Fungal susceptibility test, broth microdilution MIC; type: cell-based; settings: microdilution assay
Procedure: Fungal susceptibility test—The fungal susceptibility test was carried out with a compound concentration series as described. Li et al., “Cisplatin Protects Mice From Challenge of Cryptococcus neoformans by Targeting the Prp8 Intein,” Emerging Microbes & Infections 8(1):895-908 (2019), which is hereby incorporated by reference in its entirety. The broth microdilution method was used to determine the compound MIC values against C. neoformans. In brief, serial 2-fold dilutions of the 6G-318SS (20 to 0.03 μg/ml) were made in 100 μl RPMI-1640 medium with MOPS in 96-well U-bottom plates. The C. neoformans H99 strain (100 μl of 0.5×10^5/ml) in log phase was added to each well. […] The MIC break-point was defined as no visible fungal growth by naked eye or by determining the 90% growth inhibition using absorbance at 630 nm, compared with no inhibitor control in a 96-well plate.
C. albicans, a fungus without the Prp8 intein, was also used as a control.

in vitro = type: cell-based, human; settings: human, CC50 A549
In short: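 A549 cells (5×10^3 per well) were exposed to compounds at 37 °C for 48 h, and viability was read by MTT assay; N=3.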

C. neoformans H99 strain = assay: Fungal susceptibility test, broth microdilution MIC; type: cell-based, Cryptococcus neoformans; settings: Cryptococcus neoformans, H99STRAIN; H99 strain, 48 h, 30° C.; read-out: MIC C. neoformans
In short: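 Compound MICs were determined by broth microdilution using a compound concentration series.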

Prp8 intein = Prp8 intein (Cryptococcus gattii, UniProt E6R027); assay: Split GFP-Prp8i intein splicing assay; type: biochemical
Chain of Prp8 intein (E6R027 entry or part of it): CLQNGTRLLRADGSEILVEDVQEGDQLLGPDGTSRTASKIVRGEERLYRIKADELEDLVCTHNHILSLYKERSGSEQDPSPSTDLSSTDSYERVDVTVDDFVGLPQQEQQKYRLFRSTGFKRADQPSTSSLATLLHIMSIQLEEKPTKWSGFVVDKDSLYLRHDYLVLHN
Procedure: Cloning, expression and purfication—The split GFP-Prp8i was constructed using a mega-PCR mutagenesis approach. […] After digestion with Dpn I restriction enzyme, the PCR product was transformed into DH5α Escherichia coli. Clones were verified by plasmid DNA sequencing. The expression, refolding and purification of the GFP-Prp8i fusion protein were carried out as described previously.
[…] Then 100 μl 2×TCEP was added to a final concentration of 20 μM. The reactions were incubated at 25° C. overnight. […] Two readings were taken, one prior to addition of TCEP (I0) and one after incubation overnight with TCEP (If). Fluorescence/luminescence differences (ΔFluorescence or ΔLuminescence) were defined as If−I0 for each well. […] DMF control served as 100% splicing activity.
Split GFP-Prp8 and CJGFP-Prp8 intein splicing assays—Using black and clear bottom 96-well plates, the DPNB-treated, -refolded and -concentrated GFP-Prp8 or CfGFP-Prp8 fusion protein (0.5 μM) was incubated with compounds or Dimethylsulfoxide (DMSO) solvent control for 30 min at 25° C. in a 100 μl intein splicing buffer (20 mM Bis-tris propane, 0.5 M NaCl, 0.5 M arginine, 1 mM EDTA, and 0.05% CHAPS). Then 100 μl 2×TCEP was added to a final concentration of 20 μM. The reactions were incubated at 25° C. overnight. […] Two readings were taken, one prior to addition of TCEP (I0) and one after incubation overnight with TCEP (If). Fluorescence/luminescence differences (ΔFluorescence or ΔLuminescence) were defined as If−I0 for each well. […] DMSO control served as 100% splicing activity.

papain = target: T1, papain (Carica papaya, UniProt P00784); assay: Papain protease inhibition (Abz FRET substrate); type: biochemical; settings: compound at 400 μM
T1 construct: purchased Sigma-Aldrich
T1 sequence (P00784 134-345): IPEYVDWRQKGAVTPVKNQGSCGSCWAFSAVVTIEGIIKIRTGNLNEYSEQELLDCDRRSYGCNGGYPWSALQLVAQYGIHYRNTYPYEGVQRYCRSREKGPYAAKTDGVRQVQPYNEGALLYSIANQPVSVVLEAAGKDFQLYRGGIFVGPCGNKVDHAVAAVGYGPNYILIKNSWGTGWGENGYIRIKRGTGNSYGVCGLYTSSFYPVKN
Procedure: (§1) Trypsin and papain protease inhibition—An Abz FRET substrate (Abz-RRRRSAG-nTyr) developed previously (Li et al., “Existing Drugs as Broad-Spectrum and Potent Inhibitors for Zika Virus by Targeting NS2B-NS3 Interaction,” Cell Research 27(8):1046-1064 (2017), which is hereby incorporated by reference in its entirety) was used as the substrate for inhibition of trypsin and papain proteases. In black and clear-bottom 96-well plates, 1 μg trypsin (Sigma-Aldrich) was incubated with DMF or compounds at 400 μM at 25° C. for 30 min in a 70 μl reaction buffer containing 20 mM Tris, pH 8.0, 100 mM NaCl, 5% Glycerol, and 0.05% CHAPS. For papain, 1 μg Papain (Sigma-Aldrich) was incubated with compounds at 400 μM at 25° C. for 30 min in a 70 μl reaction buffer composed of 1.1 mM EDTA, 0.067 mM β-mercaptoethanol, 5.5 mM cysteine. […]

trypsin = assay: Trypsin protease inhibition (Abz FRET substrate); type: biochemical; settings: compound at 400 μM
Procedure: as §1

Row | Structure (SMILES) | MIC (C. neoformans H99) | reduction of MIC of known antifungal on addition of 6G-318S (C. neoformans) | other results
1 | Nc1nc(=O)[nH]cc1F [5-FC, 5-fluorocytosine, reference compound] | 8.1 µg/mL | 2 fold | MIC-comb (C. neoformans H99; combination 6G-318S + 5-FC, well D6): 2.025 µg/mL
2 | O=C(Nc1ccc(F)cc1F)c1nnsc1S(=O)(=O)c1ccc(Cl)cc1 [6G-319S, 5-((4-Chlorophenyl)sulfonyl)-N-(2,4-difluorophenyl)-1,2,3-thiadiazole-4-carboxamide] |  |  | MIC (Candida albicans): 20.8 µg/mL (≈ 50 µM); CC50 at 48 h (in vitro): 44.9 µg/mL and ~108 µM; MIC (C. neoformans H99 strain): 1.3 µg/mL (≈ 3.13 µM); inhibition at 20 µM (Prp8 intein; compound at 20 μM, read-out: inhibition of the GFP-Prp8i signal / Prp8 intein splicing): > 50%; IC50 (Prp8 intein; split GFP-Prp8 intein splicing): 9.7 µM; inhibition of papain protease activity (papain): neither 6G-318S, 6G-319S, nor cisplatin significantly inhibited; inhibition of trypsin protease activity (trypsin): neither 6G-318S, 6G-319S, nor cisplatin significantly inhibited
3 | CCCCCOc1ccc(-c2ccc(-c3ccc(C(=O)N[C@H]4C[C@@H](O)[C@@H](O)NC(=O)[C@@H]5[C@@H](O)[C@@H](C)CN5C(=O)[C@H]([C@@H](C)O)NC(=O)[C@H]([C@H](O)[C@@H](O)c5ccc(O)cc5)NC(=O)[C@@H]5C[C@@H](O)CN5C(=O)[C@H]([C@@H](C)O)NC4=O)cc3)cc2)cc1 [AND, Anidulafungin] ({pTerphenylCO(4''-OnC5H11)}-[Orn(4R-OH,5R-OH)]T[Hyp][hTyr(3S-OH,4S-OH)]T[Pro(3S-OH,4S-Me)]; lactam 1-C) |  | did not change | 
4 | C[C@@H]1[C@H](O)[C@@H](C)/C=C/C=C/C=C/C=C/C=C/C=C/C=C/[C@H](O[C@@H]2O[C@H](C)[C@@H](O)[C@H](N)[C@@H]2O)C[C@@H]2O[C@](O)(C[C@@H](O)C[C@@H](O)[C@H](O)CC[C@@H](O)C[C@@H](O)CC(=O)O[C@H]1C)C[C@H](O)[C@H]2C(=O)O [AmB, amphotericin B, reference compound] |  | more than 4 fold | MIC-alone (C. neoformans H99; C. neoformans H99, 48 h, 90% inhibition): 0.578 µg/mL; MIC-comb (C. neoformans H99; combination 6G-318S + AmB, well F6): 0.144 µg/mL
5 | CC[C@H](C)C[C@H](C)CCCCCCCCC(=O)N[C@H]1C[C@@H](O)[C@@H](NCCN)NC(=O)[C@@H]2[C@@H](O)CCN2C(=O)[C@H]([C@H](O)CCN)NC(=O)[C@H]([C@H](O)[C@@H](O)c2ccc(O)cc2)NC(=O)[C@@H]2C[C@@H](O)CN2C(=O)[C@H]([C@@H](C)O)NC1=O [CAS, Caspofungin] |  | did not change | 
6 | OC(Cn1cncn1)(Cn1cncn1)c1ccc(F)cc1F [FZ, fluconazole] |  | did not change | 
7 | CCC(C)n1ncn(-c2ccc(N3CCN(c4ccc(OCC5COC(Cn6cncn6)(c6ccc(Cl)cc6Cl)O5)cc4)CC3)cc2)c1=O (stereo not drawn) [IZ, itraconazole, reference compound] | 0.176 µg/mL | 2 fold | MIC-comb (C. neoformans H99; combination 6G-318S + IZ, well D6): 0.088 µg/mL
8 | CCCCCOc1ccc(-c2cc(-c3ccc(C(=O)N[C@H]4C[C@@H](O)[C@@H](O)NC(=O)[C@@H]5[C@@H](O)[C@@H](C)CN5C(=O)[C@H]([C@H](O)CC(N)=O)NC(=O)[C@H]([C@H](O)[C@@H](O)c5ccc(O)c(OS(=O)(=O)O)c5)NC(=O)[C@@H]5C[C@@H](O)CN5C(=O)[C@H]([C@@H](C)O)NC4=O)cc3)no2)cc1 [MF, Micafungin] (X1-[Orn(4R-OH,5R-OH)]T[Hyp][hTyr(3S-OH,4S-OH,3'-OSO3H)][Gln(3R-OH)][Pro(3S-OH,4S-Me)]; lactam 1-C) |  | did not change | 
9 | CC[C@@H]([C@H](C)O)n1ncn(-c2ccc(N3CCN(c4ccc(OC[C@@H]5CO[C@@](Cn6cncn6)(c6ccc(F)cc6F)C5)cc4)CC3)cc2)c1=O [PZ, Posaconazole] |  | did not change | 
10 | C[C@@H](c1ncncc1F)[C@](O)(Cn1cncn1)c1ccc(F)cc1F [Vor, Voriconazole, reference compound] | 0.044 µg/mL | 2 fold | MIC-comb (C. neoformans H99; combination 6G-318S + Vor, well G3): 0.087 µg/mL
